Measurements from patent US20110065749A1, “METHOD AND PHARMACEUTICAL COMPOSITION FOR TREATMENT OF MENTAL DISORDERS” (ACTIVE CO. LTD., priority 2008, published 2011).
Where a name gives a salt, the structure may show the parent alone.

Assays:
[1] = system: Attention Deficit Hyperactivity Disorder (ADHD); assay: Case 1: ADHD patient treated with Cephadol; type: in vivo, human
Experimental: Case 1: Attention Deficit Hyperactivity Disorder (ADHD)
Patient was a person, who had often shown violent behaviors. Quarreling with a bad-mannered person on the road and performing violent acts such as hitting had occurred once or twice a week. […] When they discontinued the medication with 75 mg/day Cephadol®, the symptom returned to the previous state. The effect of Cephadol® appeared in about two days, and the symptom returned to the original state in 5 days after discontinuation of the drug.

[2] = system: manic state of bipolar I disorder; assay: Case 3: manic-depressive illness patient; type: in vivo, human
Experimental: Case 3: Manic-Depressive Illness Patient was a person, who had continuously been in a manic state of bipolar I disorder for over one month. An antiepileptic drug, or 1,200 mg of Limas®, was ineffective. Antipsychotic drugs were not usable due to significant side effects. […] When they discontinued the administration of Cephadol®, the manic state appeared after 5 days.

[3] = system: Behavioral and Psychological Symptoms of Dementia; assay: Case 5: behavioral and psychological symptoms of dementia; type: in vivo, human; details: 100 mg/day
Source text: Case 5: Effect on Behavioral and Psychological Symptoms of Dementia Patient was a person with dementia, who was irritable and easily excited, and had persecutory delusion.

Bulimia = assay: Case 8: bulimia (2) patient; type: in vivo, human; details: 150 mg/day
Source text: Patient was a person, who had been suffering from bulimia. The bulimia persisted even after their marriage and childbearing.

depression = assay: Case 9: depressed symptoms patient, HAMD; type: in vivo, human; details: 75 mg/day
Source text: For evaluation of the state of depression, for example, Hamilton's rating scale for depression (HAMD) is available. The HAMD was developed by Max Hamilton in 1960 for the purpose of measuring the severity of a patient diagnosed with depression (Hamilton, M., Journal of Neurology, Neurosurgery & Psychiatry, 23-56-62 (1960) and Hamilton, M., “Development of rating scale for primary depressive illness”, British Journal of Social and Clinical Psychology, 6: 278-296 (1967)). In view of its high usefulness, it is a representative scale of evaluation for depression, widely used in clinical researches and practices. The 17 item version is used for clinical trials of antidepressants in Japan, whereas the 21 item version and the 24 item version are used in Europe or other countries.
When the severity is calculated using Hamilton's rating scale for depression (HAMD), each item is evaluated with three grades of 0-2, or five grades of 0-4. For example, the case is diagnosed as severe where the point is 20 or higher and, as the point decreases, the symptom is diagnosed as being improved.
Case 9: Depressed Symptoms
Administration to the patient of 75 mg/day Cephadol® reduced the HAMD score from 20 points to 7 points after 3 days.

[4] = system: Panic Disorder and Multiple Personality Disorder; assay: Case 10: panic disorder and multiple personality disorder patient; type: in vivo, human
Source text: Case 10: Panic Disorder and Multiple Personality Disorder
Patient was a single person, who had been treated at several psychiatric hospitals. […] They report that the medicine is best to calm their mind, and easier to take than any other drugs that they have ever taken.

Insomnia = assay: Case 11: insomnia in an elderly person; type: in vivo, human
Experimental: Case 11: Insomnia in an Elderly Person A person had had no history of insomnia or depression before they retired from their company at mandatory retirement age. […] Being seriously distressed by insomnia, they had been prescribed hypnotics at two or three mental clinics. The hypnotics had made them easily fall down when going to the bathroom at night, and made them feel half awake in the morning, with memory impairment. The patient was started on 50 mg Cephadol® twice a day (after dinner and before sleeping).

Schizophrenia = assay: Case 12: schizophrenia patient; type: in vivo, human; details: 150 mg/day
Source text: A person had been diagnosed with schizophrenia and had received antipsychotic drugs. In spite of the treatment with newest antipsychotic drugs, the dullness of thinking, depression, and obesity of the patient were not improved.

Withdrawal Symptoms = assay: Case 13: withdrawal symptoms on reducing other drugs; type: in vivo, human
Experimental: Case 13: Withdrawal Symptoms A office worker had been on 10 mg Paxil®, 2 mg Rohypnol® and 2 mg Depas® before sleeping. Although they had tried to reduce the doses of the drugs, emergence of withdrawal syndrome had hampered the reduction of the drugs. They started to take Cephadol®, 25 mg after dinner and 50 mg before sleeping. It made them able to be free from the other drugs in two weeks.

Stiff Neck = assay: Case 14: seven subjects having stiff neck; type: in vivo, human; details: two 25 mg tablets two times a day, after two days, all seven subjects
Experimental: Case 14: Stiff Neck Stiff neck is often observed as a subjective symptom, and is one of the most serious complaints in the daily life. Seven subjects having stiff neck were given two 25 mg tablets of Cephadol® two times a day (after dinner and before sleeping).

Fibromyalgia [5] = assay: Case 15: fibromyalgia (1) patient; type: in vivo, human
Experimental: They then visited the inventor's clinic. When the inventor started the treatment with 75 mg/day Cephadol®, systemic pain of the patient was improved in two days. […] As a result, they became able to perform usual household work, go outside, and further make a trip.

Fibromyalgia [6] = assay: Case 17: fibromyalgia (3) patient; type: in vivo, human
Source text: […] Being unresponsive to prescribed medicines, they were instructed to do gentle stretching exercise and massage, as well as thermotherapy on affected areas. However, their arthralgia was so terrible that they could not perform stretching exercise or other directions. They had pain at all the 18 tender points of the whole body, a jaw abnormality, and a strong pain at both knee joints, which made their unable to go to hospital on foot.

[7] = system: evoked potential of hypothalamus by vestibular nuclei stimulation; details: rat experiments; cited from earlier work
[8] = 50 mg twice a day, hypnotics halved
[9] = 25 mg after dinner and 50 mg before sleeping

OC(CCCN1CCCCC1)(c1ccccc1)c1ccccc1 [Cephadol®, 1,1-diphenyl-4-piperidine-1-ylbuthan-1-ol monohydrochloride]
side effects ([1]; 75 mg/day): no side effects
impulsivity ([1]; 75 mg/day, on day seven): disappearance of the impulsivity
impulsivity ([1]; 75 mg/day, on day two): reduction of impulsivity
time until the symptom returned to the original state after discontinuation of the drug ([1]; after discontinuation of 75 mg/day): 5 days
effect on the disease (manic state) ([2]; 150 mg/day): significant amelioration of the disease
side effects ([2]; 150 mg/day): no side effects
time until the manic state appeared after discontinuation ([2]; after discontinuation of 150 mg/day): 5 days
mental stability [3]: significantly improved mental stability
nuisance behaviors caused by the persecutory delusion [3]: prevented their nuisance behaviors to other people
side effects [3]: no side effects
duration of the effect (Bulimia): more than two
overeating (Bulimia): stopped their overeating
side effects (Bulimia; more than two months): without any side effects
side effects (depression): There were side effects
HAMD score (depression; after 3 days, from 20 points): 7 points
panic disorder ([4]; 75 mg/day for one week, then 150 mg/day): significant improvement of panic disorder
transformation of personality ([4]; 150 mg/day, previously 5 to 10 times a month): improved
antianxiety effect ([4]; 75-150 mg/day): strong antianxiety effect
dose of concomitant hypnotics (Insomnia; 50 mg twice a day): reduced in dose by half
side effects (Insomnia; 50 mg twice a day): no side effects
sleep (Insomnia; 50 mg twice a day (after dinner and before sleeping)): became able to sleep well
memory impairment on the next morning (Insomnia; [8]): without memory impairment
staggering gait on awaking at night (Insomnia; [8]): free from staggering gait on awaking at night
appetite and body weight (Schizophrenia): reduced their appetite and body weight
side effects and relapse of schizophrenia (Schizophrenia): no side effects, nor relapse of schizophrenia
thinking speed and depression (Schizophrenia): improved their subjective and objective thinking speed and depression
side effects (Withdrawal Symptoms; [9]): no side effects
time until free from the other drugs (Paxil, Rohypnol, Depas) (Withdrawal Symptoms; [9]): two
outcome after tapering Cephadol (Withdrawal Symptoms; dose reduced from 50 mg to 25 mg, and to 0 mg): discontinuation of all the drugs
stiff neck symptom (Stiff Neck): disappearance or a significant improvement of the symptom
systemic pain (Fibromyalgia [5]; 75 mg/day, in two days): improved
mobility of large joints (objective) (Fibromyalgia [5]; 150 mg/day): the mobility of large joints increased
pain at 18 tender points including low back pain (Fibromyalgia [5]; 150 mg/day): totally improved
arthralgia (Fibromyalgia [5]; 150 mg/day, increased one week later): complete elimination of arthralgia
pain at both knee joints (Fibromyalgia [6]; 75 mg/day): improved the pain at both knee joints
systemic pain (Fibromyalgia [6]; 75 mg/day): eliminated the systemic pain
mobility of large joints (objective) (Fibromyalgia [6]; 125 mg/day): the mobility of large joints increased
pain at both knee joints (Fibromyalgia [6]; dosage increased to 125 mg/day): the pain at both knee joints also disappeared
pain at both knee joints (Fibromyalgia [6]; dosage reduced to 75 mg/day, on the next day): recurrence of the pain at both knee joints
pain at both knee joints (Fibromyalgia [6]; dose re-increased to 125 mg/day, on the next day): eliminated the pain at both knee joints
evoked potential of hypothalamus by vestibular nuclei stimulation [7]: inhibited the evoked potential of hypothalamus by vestibular nuclei stimulation
